Data from ChEMBL document CHEMBL4831528, “Discovery of Novel Pterostilbene-Based Derivatives as Potent and Orally Active NLRP3 Inflammasome Inhibitors with Inflammatory Activity for Colitis” (J Med Chem, 2021).
Activity calls are given as the source filed them. The rule behind the calls is not given here.

What was measured:
BMDM [1] = test: Effect on pro-caspase1(p45) expression in LPS-stimulated mouse bone marrow-derived macrophages at 0.5 to 2 uM preincubated for 30 mins followed by nigericin addition and measured after 30 mins by Western blot analysis; type: functional, tissue-based; conditions: dose 0.5-2 µM, time 60.0 min
[2] = Half life in human liver microsomes preincubated for 5 mins followed by NADPH addition and measured after 5 to 60 mins by LC-MS/MS analysis; type: ADME, Microsome
[3] = target: NLR family CARD domain-containing protein 4 (Mus musculus) (UniProt Q3UP24); test: Inhibition of NLRC4 inflammasome activation in LPS-stimulated mouse bone marrow-derived macrophages assessed as reduction in IL-1beta secretion at 2 uM preincubated for 30 mins followed by Salmonella addition and measured after 4 hrs by ELISA; type: tissue-based; conditions: Macrophage, time 4.5 hrs
Chain of NLR family CARD domain-containing protein 4 (Mus musculus) (Q3UP24 whole entry, the tested form may be a part): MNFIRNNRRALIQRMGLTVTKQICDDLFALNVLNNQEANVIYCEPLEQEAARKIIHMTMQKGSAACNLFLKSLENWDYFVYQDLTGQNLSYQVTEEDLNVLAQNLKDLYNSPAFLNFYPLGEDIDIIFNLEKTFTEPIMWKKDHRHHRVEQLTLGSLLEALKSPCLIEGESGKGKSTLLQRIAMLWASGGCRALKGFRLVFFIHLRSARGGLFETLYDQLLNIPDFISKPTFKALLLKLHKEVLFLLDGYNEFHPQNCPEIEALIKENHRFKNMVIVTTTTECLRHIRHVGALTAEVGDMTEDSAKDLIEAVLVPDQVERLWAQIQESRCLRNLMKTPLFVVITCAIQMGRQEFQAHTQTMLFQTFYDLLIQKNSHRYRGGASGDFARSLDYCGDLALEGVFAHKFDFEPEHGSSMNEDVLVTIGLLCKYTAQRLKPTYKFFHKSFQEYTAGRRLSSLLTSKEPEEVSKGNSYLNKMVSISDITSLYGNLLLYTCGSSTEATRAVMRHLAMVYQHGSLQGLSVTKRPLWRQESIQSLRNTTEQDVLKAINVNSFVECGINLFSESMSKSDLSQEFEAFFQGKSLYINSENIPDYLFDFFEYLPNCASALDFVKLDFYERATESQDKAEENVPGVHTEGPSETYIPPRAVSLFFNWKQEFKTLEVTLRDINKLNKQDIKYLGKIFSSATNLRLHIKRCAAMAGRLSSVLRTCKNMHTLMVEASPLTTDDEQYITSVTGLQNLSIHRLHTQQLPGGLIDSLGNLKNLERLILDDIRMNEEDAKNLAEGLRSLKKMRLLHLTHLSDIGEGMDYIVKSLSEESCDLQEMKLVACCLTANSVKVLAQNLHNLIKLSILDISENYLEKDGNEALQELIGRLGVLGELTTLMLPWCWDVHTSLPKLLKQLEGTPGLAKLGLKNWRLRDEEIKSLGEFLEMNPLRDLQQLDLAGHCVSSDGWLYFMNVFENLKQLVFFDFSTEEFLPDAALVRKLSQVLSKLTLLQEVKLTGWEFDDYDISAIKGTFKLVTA

[4] = Toxicity in C57BL/6 mouse assessed as weight loss at 20 to 40 mg/kg, ig administered for 28 days; type: organism-based; conditions: in vivo, po, 672 h, dose 20-40 mg/kg, time 28 day
Mus musculus [5] = test: Downregulation of IL-1beta expression in colon of C57BL/6 mouse model of DSS-induced ulcerative colitis at 10 to 20 mg/kg, ig administered for 7 days by Western blot analysis; type: functional, organism-based; conditions: dose 10-20 mg/kg, time 7.0 day
[6] = target: T1, Interferon-inducible protein AIM2 (Mus musculus) (UniProt Q91VJ1); test: Inhibition of AIM2 inflammasome activation in LPS-stimulated mouse bone marrow-derived macrophages assessed as reduction in IL-1beta secretion at 2 uM preincubated for 30 mins followed by poly-(dA:dT) addition and measured after 4 hrs by ELISA; type: tissue-based; conditions: Macrophage, time 4.5 hrs
T1 sequence (whole entry): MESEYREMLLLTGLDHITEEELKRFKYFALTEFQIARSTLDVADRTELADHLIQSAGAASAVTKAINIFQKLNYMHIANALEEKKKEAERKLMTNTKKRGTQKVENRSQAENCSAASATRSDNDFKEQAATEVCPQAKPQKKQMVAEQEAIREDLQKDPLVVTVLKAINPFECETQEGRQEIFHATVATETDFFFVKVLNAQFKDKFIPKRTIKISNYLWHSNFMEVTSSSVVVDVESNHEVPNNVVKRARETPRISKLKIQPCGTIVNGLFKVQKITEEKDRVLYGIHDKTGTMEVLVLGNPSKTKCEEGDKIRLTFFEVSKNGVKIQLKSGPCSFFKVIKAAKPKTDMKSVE

[7] = target: NACHT, LRR and PYD domains-containing protein 3 (Mus musculus) (UniProt Q8R4B8); test: Inhibition of NLRP3 inflammasome activation in LPS-stimulated mouse bone marrow-derived macrophages assessed as reduction in pro caspase1 in cell lysate at 2 uM preincubated for 30 mins followed by MSU addition and measured after 0.5 hrs by Western blot analysis; type: subcellular; conditions: Macrophage, time 60.0 min
Chain of NACHT, LRR and PYD domains-containing protein 3 (Mus musculus) (Q8R4B8 whole entry, the tested form may be a part): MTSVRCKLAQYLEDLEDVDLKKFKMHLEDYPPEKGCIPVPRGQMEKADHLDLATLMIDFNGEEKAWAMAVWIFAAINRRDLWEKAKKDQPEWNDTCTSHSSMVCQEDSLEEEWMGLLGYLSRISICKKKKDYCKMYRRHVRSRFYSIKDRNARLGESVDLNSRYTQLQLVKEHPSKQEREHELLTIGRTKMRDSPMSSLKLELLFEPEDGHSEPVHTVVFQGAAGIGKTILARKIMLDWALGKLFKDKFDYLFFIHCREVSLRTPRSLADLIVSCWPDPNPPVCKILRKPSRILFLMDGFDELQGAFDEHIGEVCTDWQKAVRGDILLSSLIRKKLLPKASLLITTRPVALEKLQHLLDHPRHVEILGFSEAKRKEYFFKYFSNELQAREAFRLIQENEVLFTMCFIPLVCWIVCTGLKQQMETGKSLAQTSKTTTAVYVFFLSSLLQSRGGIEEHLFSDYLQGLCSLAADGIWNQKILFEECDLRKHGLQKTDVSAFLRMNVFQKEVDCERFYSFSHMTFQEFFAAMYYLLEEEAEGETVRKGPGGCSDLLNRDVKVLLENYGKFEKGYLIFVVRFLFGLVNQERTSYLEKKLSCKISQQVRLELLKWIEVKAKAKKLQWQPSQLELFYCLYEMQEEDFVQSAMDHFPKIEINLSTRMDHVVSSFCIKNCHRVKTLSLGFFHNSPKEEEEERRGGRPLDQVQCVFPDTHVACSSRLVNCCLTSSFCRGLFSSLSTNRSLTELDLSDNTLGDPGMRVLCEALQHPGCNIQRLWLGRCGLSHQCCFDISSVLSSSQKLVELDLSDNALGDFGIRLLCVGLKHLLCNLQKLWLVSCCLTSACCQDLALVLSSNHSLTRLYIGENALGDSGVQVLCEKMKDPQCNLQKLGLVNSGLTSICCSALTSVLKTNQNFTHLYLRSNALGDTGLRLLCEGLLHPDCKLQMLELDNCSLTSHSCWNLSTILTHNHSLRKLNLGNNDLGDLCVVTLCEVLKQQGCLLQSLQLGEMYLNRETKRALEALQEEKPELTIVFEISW

[8] = target: NACHT, LRR and PYD domains-containing protein 3 (Mus musculus) (UniProt Q8R4B8); test: Inhibition of NLRP3 inflammasome activation in LPS-stimulated mouse bone marrow-derived macrophages assessed as reduction in NEK7-NLRP3 protein-protein interaction preincubated for 30 mins followed by nigericin addition and measured after 30 mins by immunoprecipitation method; type: tissue-based; conditions: Macrophage, time 60.0 min
[9] = target: NACHT, LRR and PYD domains-containing protein 3 (Mus musculus) (UniProt Q8R4B8); test: Inhibition of NLRP3 inflammasome activation in LPS-stimulated mouse bone marrow-derived macrophages assessed as reduction in pro IL-1beta secretion in cell lysate at 2 uM preincubated for 30 mins followed by nigericin addition and measured after 0.5 hrs by Western blot analysis; type: subcellular; conditions: Macrophage, time 60.0 min
[10] = target: NACHT, LRR and PYD domains-containing protein 3 (Mus musculus) (UniProt Q8R4B8); test: Inhibition of NLRP3 inflammasome activation in LPS-stimulated mouse bone marrow-derived macrophages assessed as reduction in caspase1 p20 in supernatant at 2 uM preincubated for 30 mins followed by MSU addition and measured after 0.5 hrs by Western blot analysis; type: tissue-based; conditions: Macrophage, time 60.0 min
[11] = target: NACHT, LRR and PYD domains-containing protein 3 (Mus musculus) (UniProt Q8R4B8); test: Inhibition of NLRP3 inflammasome activation in LPS-stimulated mouse bone marrow-derived macrophages assessed as attenuation of ASC polymer at 1 to 4 uM preincubated for 30 mins followed by nigericin addition and measured after 0.5 hrs by Western blot analysis; type: tissue-based; conditions: Macrophage, dose 1-4 µM, time 60.0 min
[12] = target: NACHT, LRR and PYD domains-containing protein 3 (Mus musculus) (UniProt Q8R4B8); test: Inhibition of NLRP3 inflammasome activation in LPS-stimulated mouse bone marrow-derived macrophages assessed as reduction in NLRP3/ASC protein-protein interaction preincubated for 30 mins followed by nigericin addition and measured after 30 mins by immunoprecipitation method; type: tissue-based; conditions: Macrophage, time 60.0 min
Mus musculus [13] = test: In vivo inhibition of NLRP3 inflammasome activation in C57BL/6 mouse assessed as reduction in MPO activity at 10 to 20 mg/kg, ig administered for 7 days by ELISA; type: functional, organism-based; conditions: dose 10-20 mg/kg, time 7.0 day
[14] = Toxicity in C57BL/6 mouse assessed as effect on heart at 20 to 40 mg/kg, ig administered for 28 days; type: organism-based; conditions: in vivo, po, 672 h, dose 20-40 mg/kg, time 28 day
[15] = Hepatic clearance in mouse liver microsomes preincubated for 5 mins followed by NADPH addition and measured after 5 to 60 mins by LC-MS/MS analysis; type: ADME, Microsome; conditions: time 5-60 min
Mus musculus [16] = test: In vivo inhibition of NLRP3 inflammasome activation in C57BL/6 mouse model of DSS-induced ulcerative colitis assessed as reduction in IL-1beta expression at 10 to 20 mg/kg, ig administered for 7 days by ELISA; type: functional, organism-based; conditions: dose 10-20 mg/kg, time 7.0 day
[17] = target: NACHT, LRR and PYD domains-containing protein 3 (Mus musculus) (UniProt Q8R4B8); test: Inhibition of NLRP3 inflammasome activation in LPS-stimulated mouse bone marrow-derived macrophages assessed as reduction in activated caspase1 p20 in supernatant at 2 uM preincubated for 30 mins followed by nigericin addition and measured after 0.5 hrs by Western blot analysis; type: tissue-based; conditions: Macrophage, time 60.0 min
Mus musculus [18] = test: Downregulation of COX2 expression in colon of C57BL/6 mouse model of DSS-induced ulcerative colitis at 10 to 20 mg/kg, ig administered for 7 days by Western blot analysis; type: functional, organism-based; conditions: dose 10-20 mg/kg, time 7.0 day
[19] = Inhibition of ROS production in LPS-stimulated mouse bone marrow-derived macrophages at 1 to 4 uM preincubated for 30 mins followed by nigericin addition and measured after 0.5 hrs by Western blot analysis; conditions: Macrophage, dose 1-4 µM, time 60.0 min
[20] = Hepatic clearance in human liver microsomes preincubated for 5 mins followed by NADPH addition and measured after 5 to 60 mins by LC-MS/MS analysis; type: ADME, Microsome; conditions: time 5-60 min
[21] = target: NACHT, LRR and PYD domains-containing protein 3 (Homo sapiens, UniProt Q96P20); test: Binding affinity to His-GFP fused tagged NLRP3 (unknown origin) expressed in HEK293T incubated for 30 mins by microscale thermophoresis assay; type: cell-based
Chain of NACHT, LRR and PYD domains-containing protein 3 (Q96P20 whole entry, the tested form may be a part): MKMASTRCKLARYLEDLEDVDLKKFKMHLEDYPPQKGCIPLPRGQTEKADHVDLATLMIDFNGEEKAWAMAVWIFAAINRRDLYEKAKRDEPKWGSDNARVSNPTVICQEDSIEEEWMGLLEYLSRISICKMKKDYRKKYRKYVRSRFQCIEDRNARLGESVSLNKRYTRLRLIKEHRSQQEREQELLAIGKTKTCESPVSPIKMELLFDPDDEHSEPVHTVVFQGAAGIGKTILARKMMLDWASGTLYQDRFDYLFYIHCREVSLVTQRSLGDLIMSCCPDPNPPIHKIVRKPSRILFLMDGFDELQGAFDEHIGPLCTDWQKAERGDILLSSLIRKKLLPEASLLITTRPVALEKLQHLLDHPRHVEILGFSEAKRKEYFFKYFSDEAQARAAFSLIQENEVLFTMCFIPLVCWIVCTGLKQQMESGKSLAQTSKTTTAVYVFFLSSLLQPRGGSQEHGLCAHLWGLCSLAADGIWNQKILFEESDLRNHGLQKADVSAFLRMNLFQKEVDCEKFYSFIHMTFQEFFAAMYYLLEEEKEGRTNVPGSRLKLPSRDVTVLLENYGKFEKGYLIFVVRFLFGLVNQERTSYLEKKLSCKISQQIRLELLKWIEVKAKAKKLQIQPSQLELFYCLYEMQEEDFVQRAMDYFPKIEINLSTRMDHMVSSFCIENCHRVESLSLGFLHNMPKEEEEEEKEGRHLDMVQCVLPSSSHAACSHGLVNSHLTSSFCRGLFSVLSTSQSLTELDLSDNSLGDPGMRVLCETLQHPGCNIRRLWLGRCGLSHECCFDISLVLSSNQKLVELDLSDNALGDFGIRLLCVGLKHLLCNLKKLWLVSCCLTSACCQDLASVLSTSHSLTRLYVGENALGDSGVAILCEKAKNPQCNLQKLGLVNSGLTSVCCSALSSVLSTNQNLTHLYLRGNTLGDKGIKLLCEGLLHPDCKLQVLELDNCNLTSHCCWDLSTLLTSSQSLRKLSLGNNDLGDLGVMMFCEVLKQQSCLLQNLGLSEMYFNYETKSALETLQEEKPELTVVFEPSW

[22] = target: NACHT, LRR and PYD domains-containing protein 3 (Mus musculus) (UniProt Q8R4B8); test: Inhibition of NLRP3 inflammasome activation in LPS-stimulated mouse bone marrow-derived macrophages assessed as reduction in pro caspase1 p20 in cell lysate at 2 uM preincubated for 30 mins followed by ATP addition and measured after 0.5 hrs by Western blot analysis; type: subcellular; conditions: Macrophage, time 60.0 min
[23] = Cmax in mouse at 2 mg/kg, iv measured after 0.08 to 24 hrs by LC-MS/MS analysis; type: ADME, organism-based; parameters: route intravenous, time 0.08-24 hrs, dose 2 mg/kg; conditions: in vivo
BMDM [24] = test: Effect on NLRP3 expression in LPS-stimulated mouse bone marrow-derived macrophages at 0.5 to 2 uM preincubated for 30 mins followed by nigericin addition and measured after 30 mins by Western blot analysis; type: functional, tissue-based; conditions: dose 0.5-2 µM, time 60.0 min
[25] = Clearance in mouse at 20 mg/kg, po measured up to 24 hrs by LC-MS/MS analysis; type: ADME, organism-based; conditions: in vivo
[26] = Half life in mouse at 20 mg/kg, po measured up to 24 hrs by LC-MS/MS analysis; type: ADME, organism-based; conditions: in vivo

Question: For `COc1cc(/C=C/c2ccc(NC(=O)C3CC3)cc2)c(/C=C/[N+](=O)[O-])c(OC)c1`, which Activity (BMDM [1]) is on record?
Answer: Its Activity is “inactive”.

Question: And the half-life [2]?
Answer: Its half-life is 1.13 h.

Question: What about the inhibition [3] of the same molecule?
Answer: Its inhibition is “inactive”.

Question: What about the Activity [4] of the same molecule?
Answer: The Activity was “Non-Toxic”.

Question: What about the Activity (Mus musculus [5]) of the same molecule?
Answer: Its Activity is “Active”.

Question: What about the inhibition [6] of the same molecule?
Answer: The inhibition was “inactive”.

Question: And the inhibition [7]?
Answer: The inhibition was “Active”.

Question: What about the inhibition [8] of the same molecule?
Answer: Its inhibition is “Dose-Dependent Effect”.

Question: And the inhibition [9]?
Answer: Its inhibition is “Active”.

Question: And the inhibition [10]?
Answer: Its inhibition is “Active”.

Question: And the inhibition [11]?
Answer: Its inhibition is “Active”.

Question: What about the inhibition [12] of the same molecule?
Answer: Its inhibition is “Dose-Dependent Effect”.

Question: What about the inhibition (Mus musculus [13]) of the same molecule?
Answer: The inhibition was “Active”.

Question: What about the Activity [14] of the same molecule?
Answer: Its Activity is “Non-Toxic”.

Question: What about the CLhep predicted [15] of the same molecule?
Answer: Its CLhep predicted is 52.5 mL/min/kg.

Question: What about the inhibition (Mus musculus [16]) of the same molecule?
Answer: The inhibition was “Active”.

Question: What about the inhibition [17] of the same molecule?
Answer: Its inhibition is “Active”.

Question: What about the Activity (Mus musculus [18]) of the same molecule?
Answer: Its Activity is “Active”.

Question: And the inhibition [19]?
Answer: The inhibition was “inactive”.

Question: And the CLhep predicted [20]?
Answer: The CLhep predicted was 11 mL/min/kg.

Question: What about the Kd [21] of the same molecule?
Answer: Its Kd is 263 nM.

Question: What about the inhibition [22] of the same molecule?
Answer: The inhibition was “Active”.

Question: And the Cmax [23]?
Answer: Its Cmax is 355 ng/mL.

Question: And the Activity (BMDM [24])?
Answer: Its Activity is “inactive”.

Question: What about the CL [25] of the same molecule?
Answer: The CL was 152 mL/min/kg.

Question: And the half-life [26]?
Answer: Its half-life is 4.93 h.
